Where “and” joins values, the source holds several entries; their conditions need not be identical. Equal values may be shown once.
What was measured:
Format in all cases: toxicity, cell-based
U2OS = assay: Incucyte cell viability with U2OS; settings: human, 10 µM, compound concentration 10 uM
Fibroblast = assay: Incucyte cell viability with human fibroblast; settings: 10 µM, compound concentration 10 uM
HEK-293T = assay: Incucyte cell viability with HEK293T; settings: human, 10 µM, compound concentration 10 uM
Note: unitless GR value; below 1 slowed growth and below 0 cell loss.

Structure (SMILES)	Growth Rate (U2OS; 6 h, replicate number 1)	Growth Rate (U2OS; 6 h, replicate number 2)	Growth Rate (U2OS; 12 h, replicate number 1)	Growth Rate (U2OS; 12 h, replicate number 2)	Growth Rate (U2OS; 18 h, replicate number 1)	Growth Rate (U2OS; 18 h, replicate number 2)	Growth Rate (U2OS; 24 h, replicate number 1)	Growth Rate (Fibroblast; 6 h, replicate number 1)	Growth Rate (Fibroblast; 6 h, replicate number 2)	Growth Rate (Fibroblast; 12 h, replicate number 2)	Growth Rate (Fibroblast; 18 h, replicate number 1)	Growth Rate (Fibroblast; 18 h, replicate number 2)	Growth Rate (Fibroblast; 24 h, replicate number 2)	Growth Rate (HEK-293T; 6 h, replicate number 2)	Growth Rate (HEK-293T; 12 h, replicate number 2)	Growth Rate (U2OS; 0 h, replicate number 1)	Growth Rate (U2OS; 0 h, replicate number 2)	Growth Rate (HEK-293T; 18 h, replicate number 2)	also measured
COc1ccccc1C(=O)Nc1cccc(NC(=O)c2cccc(C)c2)c1	0.17	0.68	0.78	0.75	0.83	0.84	0.88	0.45	-1	0.94	0.17	0.98	0.85	0.58	0.91	–	–	–	–
CCOC(=O)N1CCC(c2cc(O)n3nc(C)c(-c4ccc(F)cc4)c3n2)CC1	0.54	0.99	0.93	–	0.98	–	–	–	-0.67	0.8	0.13	0.85	0.92	0.98	–	0.61	0.63	–	Growth Rate (HEK-293T; 12 h, replicate number 1): 0.62; Growth Rate (HEK-293T; 18 h, replicate number 1): 0.78; Growth Rate (HEK-293T; 24 h, replicate number 1): 0.88
Cc1ccc(CNc2ncnc3ccc(-c4ccc(CO)o4)cc23)o1	–	–	–	–	–	0.94	–	-1	–	–	–	–	–	0.11	0.71	-0.83	–	0.69	Growth Rate (U2OS; 24 h, replicate number 2): 0.86; Growth Rate (Fibroblast; 0 h, replicate number 2): 0.71; Growth Rate (HEK-293T; 24 h, replicate number 2): 0.79
Cc1cc(C)c(NC(=O)C2CC3CCC2C3)c(C)c1 (configuration not stated)	0.68	–	0.47	0.78	0.75	–	0.83	-0.94	-0.52	0.78	–	0.75	0.97	0.65	–	–	–	–	–
CN(C)CCOc1ccc(/C(=C(/CCCO)c2ccccc2)c2ccc(O)cc2)cc1	0.76	–	–	–	1	–	–	–	–	–	–	–	–	0.71	–	–	-0.67	–	Growth Rate (Fibroblast; 0 h, replicate number 1): 0.55; Growth Rate (Fibroblast; 0 h, replicate number 2): -0.4; Growth Rate (Fibroblast; 24 h, replicate number 1): 0.02
COc1ccc(-c2csc(NC(=O)[C@H]3CCCCN3S(=O)(=O)c3ccc(C)cc3)n2)cc1	0.92	0.97	0.99	–	–	–	0.87 and 0.98	0.02	–	–	–	0.57	0.7	0.07 and 0.12	0.37	0.22	-0.9	0.3 and 0.38	Growth Rate (Fibroblast; 0 h, replicate number 1): -1 and -0.88; Growth Rate (Fibroblast; 12 h, replicate number 1): 0.31; Growth Rate (Fibroblast; 24 h, replicate number 1): 0.84; Growth Rate (HEK-293T; 18 h, replicate number 1): 0.35 and 0.26; Growth Rate (HEK-293T; 24 h, replicate number 1): 0.37 and 0.33; Growth Rate (HEK-293T; 24 h, replicate number 2): 0.41 and 0.4
COc1ccc(CC(=O)NC(N/C(=N/C#N)Nc2cccc3ncccc23)C(C)(C)C)cc1OC (configuration not stated)	0.08	0.31	0.96	0.85	0.98	0.78	–	-0.31	-1	0.57	0.6	0.81	0.59	0.89	–	0.85	–	0.99	Growth Rate (U2OS; 24 h, replicate number 2): 0.82; Growth Rate (Fibroblast; 12 h, replicate number 1): -1

Reference: ChEMBL document CHEMBL5303304, “EUbOPEN Chemogenomics Library - IncuCyte” (2023)
